Data from publication PMC12683216, “Using High‐Throughput Screening to Identify Crosslinking Peptides That Control Cell‐Mediated Matrix Degradation” (Advanced Healthcare Materials, 2025).
Like-named read-outs stand apart in the source and are kept apart here. Where a SMILES comes first, the peptide text is derived from it. [ ]: non-standard residue; d: D form. βAla = NCCC(=O)O

How the values were obtained:
Assay type in all cases: in vitro ADME, human
[1] = Soluble peptide degradation, Media condition (cell-conditioned media, LC-MS)
In short: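 Pooled peptide library added to medium conditioned by hUVECs or hMSCs with cells removed. Fraction remaining after 24 h measured by LC-MS (positive-ion ESI). Value is peptide peak area relative to 50 µM non-degradable βFβA6 internal standard.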

MMP-14 = experiment: Soluble peptide degradation, Cells condition (LC-MS); conditions: human
In short: (§1)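 Pooled synthetic TAILS-derived peptides added to hUVEC or hMSC cultures (Cells) or cell-free conditioned media (Media); MMP-14 inhibitor NSC 405 020 at 10 µM final. Samples taken at 0 and 24 h, acidified, analysed by LC-MS; peak areas normalised to 50 µM βFβA6 internal standard, 24 h/0 h gives fraction remaining.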

[2] = as above; conditions: human; for remaining at 24 h, 50 µM: Figure 3C, individually synthesized soluble peptide, N = 6
In short: as §1

hMSCs = experiment: as above; conditions: for peptide remaining after 24 h, Cells condition, hMSCs: 50 µM soluble peptide; for Fraction of peptide remaining after 24 hours: hMSC Cells: individually synthesized soluble peptide, media on hMSCs, ratio to βFβA6
In short: as §1

[3] = Figure 3C, individually synthesized soluble peptide, 50 µM, hMSC-conditioned media without cells, 24 h, LC-MS, ratio to βFβA6, N = 6
[4] = human, Figure 2B heatmap, pooled TAILS-derived soluble peptides in 24 h hMSC-conditioned media without cells, 24 h, LC-MS, ratio to βFβA6 internal standard, 24 h / 0 h, N = 5, read-out: Fraction of peptide remaining at 24 hours: hMSC Media
[5] = Figure 3C, 50 µM, 24 h, LC-MS, N = 6
[6] = with NSC 405 020 (MMP-14 inhibitor), Figure 3C, 50 µM peptide, media on hUVECs with MMP-14 inhibitor NSC 405 020 10 µM, 24 h, LC-MS, N = 6, read-out: Fraction of peptide remaining after 24 hours: hUVEC +Inhibitor
[7] = hMSCs in culture with fresh media (Cells condition), Figure 2B heatmap, pooled TAILS-derived soluble peptides (Ac-βAla N-terminus, βAla-amide C-terminus) in media on hMSCs (36000 per well, 48 well plate, 500 µL), 24 h, LC-MS, ratio to βFβA6 internal standard, 24 h / 0 h, N = 5, read-out: Fraction of peptide remaining at 24 hours: hMSC Cells
[8] = hUVECs in culture with fresh media (Cells condition), Figure 2B heatmap, pooled TAILS-derived soluble peptides in media on hUVECs (75000 per well, 48 well plate, 500 µL), 24 h, LC-MS, ratio to βFβA6 internal standard, 24 h / 0 h, N = 5, read-out: Fraction of peptide remaining at 24 hours: hUVEC Cells
[9] = human, hMSC-conditioned media without cells (Media condition), Figure 3B heatmap, split-and-pool libraries KLVADX1X2ASAE in hMSC-conditioned media without cells, 24 h, LC-MS, ratio to βFβA6, N = 2, read-out: Fraction of peptide remaining after 24 hours: hMSC Media
[10] = with NSC 405 020 (MMP-14 inhibitor), Figure 3C, 50 µM peptide, media on hMSCs with MMP-14 inhibitor NSC 405 020 10 µM, 24 h, LC-MS, N = 6, read-out: Fraction of peptide remaining after 24 hours: hMSC +Inhibitor
[11] = hUVECs in culture with fresh media (Cells condition), media on hUVECs, 24 h, LC-MS, ratio to βFβA6, read-out: Fraction of peptide remaining after 24 hours: hUVEC Cells

Fraction of peptide remaining after 24 hours: hMSC Media [1, 3]	remaining at 24 h [1, 4]	peptide remaining after 24 h, Cells condition, hMSCs (hMSCs; Figure 3C, LC-MS, N = 6)	Fraction of peptide remaining after 24 hours: hMSC Cells (hMSCs; [5])	remaining at 24 h, 50 µM (MMP-14; [6])	remaining at 24 h [2, 7]	remaining at 24 h [2, 8]	remaining at 24 h [1, 9]	remaining at 24 h, 50 µM (MMP-14; [10])	remaining at 24 h, 50 µM [2, 11]	Compound	other results
										CSCC[C@H](NC(=O)[C@H](CC(C)C)NC(=O)[C@H](CC(=O)O)NC(=O)[C@H](C)NC(=O)[C@@H](NC(=O)[C@H](CC(C)C)NC(=O)[C@H](CCCCN)NC(=O)CCNC(C)=O)C(C)C)C(=O)N[C@@H](C)C(=O)N[C@@H](CO)C(=O)N[C@@H](C)C(=O)N[C@@H](CCC(=O)O)C(=O)NCCC(N)=O [KLVAD-LM] (Ac-[βAla]KLVADLMASAE[βAla]-NH2)	degraded across all Media conditions [1]: less than 10%; remaining at 24 h, 50 µM ([1]; human, cells or culture medium): 97%; remaining at 24 h, 50 µM (MMP-14; cells or culture medium): 100%; remaining at 24 h, 50 µM (MMP-14; cells or culture medium, Fraction of peptide remaining after 24 hours: hMSC +Inhibitor): 82%; remaining at 24 h ([2]; cells or culture medium): 87%; remaining at 24 h ([2]; cells or culture medium, Fraction of peptide remaining after 24 hours: hMSC Cells): 39%
0.85	86%	35%	0.35	95%	39%	69%				CC[C@H](C)[C@H](NC(=O)CNC(=O)[C@H](CCC(N)=O)NC(=O)[C@@H]1CCCN1C(=O)CNC(=O)CCNC(C)=O)C(=O)N[C@@H](Cc1c[nH]c2ccccc12)C(=O)NCC(=O)N[C@@H](CCC(N)=O)C(=O)NCCC(N)=O [PanMMP, reference compound] (Ac-[βAla]GPQGIWGQ[βAla]-NH2)	peptide remaining, Media condition, hMSCs ([1]; Figure 3C, 50 µM soluble peptide, 24 h, LC-MS, N = 6): 85%; remaining at 24 h, 50 µM ([1]; human, hMSC-conditioned media without cells, no exogenous MMP-14, Figure 7 study, 24 h, LC-MS, N = 3 with technical triplicates, read-out: peptide remaining in hMSC conditioned media without exogenous MMP-14): 85%; peptide remaining, Cells + MMP-14 inhibitor, hMSCs (hMSCs; 24 h, 50 µM): 78%; Fraction of peptide remaining after 24 hours: hMSC +Inhibitor (hMSCs; Figure 3C, 50 µM peptide, media on hMSCs with MMP-14 inhibitor NSC 405 020 10 µM, 24 h, LC-MS, N = 6): 0.78; metabolised at 24 h ([2]; hMSCs in culture with fresh media (Cells condition), Figure 2B screen, hMSCs, 24 h, LC-MS, read-out: amount of degradation in the Cells condition): 61%
0.92	97%	78%		98%	70%	92%	84%	87%	96%	CC(=O)NCCC(=O)N[C@@H](CCCCN)C(=O)N[C@@H](CC(C)C)C(=O)N[C@H](C(=O)N[C@@H](C)C(=O)N[C@@H](CC(=O)O)C(=O)N[C@@H](CC(N)=O)C(=O)N[C@@H](Cc1ccc(O)cc1)C(=O)N[C@@H](C)C(=O)N[C@@H](CO)C(=O)N[C@@H](C)C(=O)N[C@@H](CCC(=O)O)C(=O)NCCC(N)=O)C(C)C [KLVAD-NY] (Ac-[βAla]KLVADNYASAE[βAla]-NH2)	metabolised at 24 h ([1]; human, Figure 2B screen, hMSC-conditioned media, 24 h, LC-MS): < 3%; remaining after 24 h in the Cells condition for hMSCs (hMSCs; Figure 2B screen, 24 h, LC-MS): 70%; remaining at 24 h, 50 µM ([2]; hMSCs in culture with fresh media (Cells condition), media on hMSCs, 24 h, LC-MS, ratio to βFβA6, read-out: Fraction of peptide remaining after 24 hours: hMSC Cells): 78%
			0.52	100%			81%	89%	88%	CC(=O)NCCC(=O)N[C@@H](CCCCN)C(=O)N[C@@H](CC(C)C)C(=O)N[C@H](C(=O)N[C@@H](C)C(=O)N[C@@H](CC(=O)O)C(=O)N1CCC[C@H]1C(=O)N[C@@H](Cc1ccc(O)cc1)C(=O)N[C@@H](C)C(=O)N[C@@H](CO)C(=O)N[C@@H](C)C(=O)N[C@@H](CCC(=O)O)C(=O)NCCC(N)=O)C(C)C [KLVAD-PY] (Ac-[βAla]KLVADPYASAE[βAla]-NH2)	remaining at 24 h, 50 µM ([1]; human, hMSC-conditioned media without cells (Media condition), Figure 3C, individually synthesized soluble peptide, 50 µM, hMSC-conditioned media without cells, 24 h, LC-MS, ratio to βFβA6, N = 6, read-out: Fraction of peptide remaining after 24 hours: hMSC Media): 96%; remaining at 24 h ([2]; hMSCs in culture with fresh media (Cells condition), Figure 3B heatmap, split-and-pool libraries KLVADX1X2ASAE (19 or 38 peptides per library) in media on hMSCs, 24 h, LC-MS, ratio to βFβA6, N = 2, read-out: Fraction of peptide remaining after 24 hours: hMSC Cells): 56%; remaining at 24 h ([2]; hUVECs in culture with fresh media (Cells condition), Figure 3B heatmap, split-and-pool libraries KLVADX1X2ASAE in media on hUVECs, 24 h, LC-MS, ratio to βFβA6, N = 2, read-out: Fraction of peptide remaining after 24 hours: hUVEC Cells): 94%
